In patent US20040116493A1, “Anti-helicobacterial agents” (priority 2000, published 2004):
Values after ≈ are worked out from the molar mass of the structure shown. Values joined by “and” are separate entries in the source; they are usually repeats but may differ in a detail not shown here. Equal entries are not always repeated. One block for each molecule: values may come before it.

Columns and labels:
[1] = system: Klebsiella pneumoniae ATCC 27736; assay: Agar plate dilution method, MIC; format: cell-based; details: ATCC27736; Klebsiella pneumoniae ATCC 27736, MH agar, overnight
Description: (§1) Firstly, the thus-synthesized compound of the present invention (2) was studied for its activity in vitro. For antibacterial activity, an agar plate dilution method was employed. The agar plate dilution method is well known in the art.
(§2) Specifically, a test compound containing the compound of the present invention was dissolved into dimethylsulfoxide, and serially diluted by two fold each time with sterile distilled water to prepare an antibacterial activity sample for the test compound containing the compound of the present invention. A BHI (Brain Heart Infusion) agar with 7% horse blood was used as medium for investigation of the antibacterial activity against H. pylori and H. felis. 1 ml of the sample of the compound of the present invention was added to 9 ml of the medium, followed by mixing to prepare an agar plate for measuring the antibacterial activity. MH (Mueller Hinton) agar medium was used to investigate the antibacterial activities against Pseudomonas aeruginosa, Escherichia coli, Klebsiella pneumoniae, and Staphylococcus aureus; and 10% horse serum-added MH agar medium was used to investigate the antibacterial activities against Streptococcus pneumoniae and Enterococcus faecalis. In both cases, agar plates for measuring the antibacterial activities are prepared in a manner similar to that for H. pylori and H. felis. For H. pylori and H. felis out of the bacteria to be subjected to the tests, 1 ml of each frozen bacterium stock solution was inoculated to 9 ml of 7% bovine fetal serum-added BHI liquid medium, and cultured at 37° C. for 48 hours in a 10% CO2 incubator. Each culture bacterium solution was prepared with the same medium to 10^6 CFU/ml (colony formation unit/milliliter). 5 μl of the prepared bacterium solution was inoculated to the antibacterial activity measuring agar medium, and cultured at 37° C. for 4 days in a 10% CO2 incubator. MH liquid medium was used for Pseudomonas aeruginosa, Escherichia coli, Klebsiella pneumoniae, and Staphylococcus aureus; and 10% horse serum-added MH liquid medium was used for Streptococcus pneumoniae and Enterococcus faecalis. In both cases, 1 ml of each frozen bacterium stock solution was inoculated to 9 ml of the medium, and cultured at 37° C. overnight. Each culture bacterium solution was prepared with the same medium as that had been used in the incubation to 10^6 CFU/ml. 5 μl of the prepared bacterium solution was inoculated to the antibacterial activity measuring agar medium, and cultured at 37° C. overnight.
(§3) The antibacterial activity of the compound against a subject bacterium (MIC: Minimum Inhibitory Concentration) was a maximum dilution ratio at which the growth of inoculated bacteria was not observed by the unaided eye.
(§4) The results are represented by MIC (Minimum Inhibitory Concentration).

[2] = system: Escherichia coli NIHJ JC-2; assay: Agar plate dilution method, MIC; format: cell-based; details: NIHJJC2; Escherichia coli NIHJ JC-2, MH agar, overnight
Description: as §1, §2, §3, §4

[3] = system: Pseudomonas aeruginosa ATCC 25619; assay: Agar plate dilution method, MIC; format: cell-based; details: ATCC25619; Pseudomonas aeruginosa ATCC 25619, MH agar, overnight
Description: as §1, §2, §3, §4

Helicobacter pylori SS1 = assay: Agar plate dilution method, MIC; format: cell-based; details: 96 h; Helicobacter pylori SS1, BHI agar with 7% horse blood, 4 days
Description: as §1, §2, §3, §4

[4] = system: Helicobacter pylori ATCC 43504; assay: Agar plate dilution method, MIC; format: cell-based; details: ATCC43504, 96 h; Helicobacter pylori ATCC 43504, BHI agar with 7% horse blood, 4 days
Description: as §1, §2, §4

[5] = system: Helicobacter pylori SR-9043; assay: Agar plate dilution method, MIC; format: cell-based; details: SR9043, 96 h; Helicobacter pylori SR-9043, BHI agar with 7% horse blood, 4 days
Description: as §1, §2, §4

[6] = system: Streptococcus pneumoniae SR-1003; assay: Agar plate dilution method, MIC; format: cell-based; details: SR1003; Streptococcus pneumoniae SR-1003, 10% horse serum-added MH agar, overnight
Description: as §1, §2, §4

[7] = system: Enterococcus faecalis ATCC 19433; assay: Agar plate dilution method, MIC; format: cell-based; details: ATCC19433; Enterococcus faecalis ATCC 19433, 10% horse serum-added MH agar, overnight
Description: as §1, §2, §4

[8] = system: Staphylococcus aureus FDA 209P; assay: Agar plate dilution method, MIC; format: cell-based; details: FDA209P, MH agar, overnight
Description: as §1, §2, §4

[9] = system: Helicobacter felis ATCC 49179; assay: Agar plate dilution method, MIC; format: cell-based; details: ATCC49179, 96 h; Helicobacter felis ATCC 49179, BHI agar with 7% horse blood, 4 days
Description: as §1, §2, §4

[10] = system: Helicobacter pylori ATCC 43629; assay: Agar plate dilution method, MIC; format: cell-based; details: ATCC43629, 96 h; Helicobacter pylori ATCC 43629, BHI agar with 7% horse blood, 4 days
Description: as §1, §2, §4

H. pylori ATCC 43504 = assay: In vivo bacterial eradication test in infected mice; parameters: species or system mice of the ICR strain; details: for Bacterial eradication number / bacterial eradication % / Number of each bacterium in stomach: oral, three days; for Bacterial eradication number / bacterial eradication %: 3 samples; for Number of each bacterium in stomach: individual mice, limit of detection log 1.3; for bacterial eradication effect: 40 mg/kg
Description: Next, the compound of the present invention was studied as to whether or not it had bacterial eradication activity in vivo. 5-week old mice of the ICR strain from CLEA Japan, Inc. were used. These mice were infected with H. pylori ATCC 43504 (day 0). After the mice had been confirmed to be infected with H. pylori, the dose indicated in Table 3 was administered into the mice twice a day (AM 9 and PM 5) from day 20 to day 22. At day 23 which was the day after the last day of the administration, the mice were dissected and the number of bacteria within their stomachs were counted. The bacteria count measurement was conducted in the following manner. Phosphate buffer was added to the collected stomachs to prepare homogenates. These homogenates were inoculated to 7% horse blood-added agar medium to which various drugs were added in order to suppress the growth of bacteria other than the genus Helicobacter, and cultured at 37° C. for 7 days in a 10% CO2 incubator. The bacterial eradication activity was judged by detecting the presence or absence of the growth of the bacteria.

MIC [1]: > 25 µg/mL
MIC [2]: > 25 µg/mL
MIC [3]: > 25 µg/mL
MIC (Helicobacter pylori SS1): 0.78 µg/mL (≈ 4.56 µM)
MIC [4]: > 25 µg/mL
MIC [5]: > 25 µg/mL
MIC [6]: > 25 µg/mL
MIC [7]: > 25 µg/mL
MIC [8]: > 25 µg/mL
MIC [9]: 0.78 µg/mL (≈ 4.56 µM)
MIC [10]: 3.13 µg/mL (≈ 18.3 µM)
SMILES: Cc1ncc([N+](=O)[O-])n1CCO [Metronidazole, metronidazole]

MIC [2]: > 25 µg/mL
MIC [3]: > 25 µg/mL
MIC [4]: 12.5 µg/mL (≈ 22.5 µM)
MIC [8]: > 25 µg/mL
SMILES: O=C1c2ccccc2C(=O)N1N1C(=O)c2ccc3c4c(ccc(c24)C1=O)C(=O)N(N1C(=O)c2ccccc2C1=O)C3=O [Compound 5]

MIC [2]: > 25 µg/mL
MIC [3]: > 25 µg/mL
MIC [4]: 2.5 µg/mL (≈ 5.78 µM)
MIC [8]: > 25 µg/mL
SMILES: O=C1c2ccc3c4c(ccc(c24)C(=O)N1c1nccs1)C(=O)N(c1nccs1)C3=O [Compound 4]

MIC [2]: > 25 µg/mL
MIC [3]: > 25 µg/mL
MIC [4]: 0.39 µg/mL (≈ 0.955 µM)
MIC [8]: > 25 µg/mL
SMILES: CN(C)CCN1C(=O)c2ccc3c4c(ccc(c24)C1=O)C(=O)N(CCN(C)C)C3=O [Compound 7]

MIC [2]: > 25 µg/mL
MIC [3]: > 25 µg/mL
MIC [4]: 0.31 µg/mL (≈ 0.707 µM)
MIC [8]: > 25 µg/mL
SMILES: CC(=O)OCCN1C(=O)c2ccc3c4c(ccc(c24)C1=O)C(=O)N(CCOC(C)=O)C3=O [Compound 6]

The remaining lines, values behind:

SMILES: O=C1c2ccc3c4c(ccc(c24)C(=O)N1c1ccccn1)C(=O)N(c1ccccn1)C3=O [Compound 2, N,N′-bis-(2-pyridyl)naphthalene-1,4,5,8-tetracarboxylate diimide]
bacterial eradication effect (samples) (H. pylori ATCC 43504; 20 mg/kg): 3/3
Bacterial eradication number (H. pylori ATCC 43504; 20 mg/kg twice a day): 3
bacterial eradication % (H. pylori ATCC 43504; 20 mg/kg twice a day): 100%
Number of each bacterium in stomach (H. pylori ATCC 43504; 20 mg/kg twice a day): <1.3, <1.3, log CFU/stomach (2×) and <1.3 log CFU/stomach
MIC [1]: > 25 µg/mL
MIC [2]: > 25 µg/mL
MIC [3]: > 25 µg/mL
MIC (Helicobacter pylori SS1): 0.1 µg/mL (≈ 0.238 µM)
MIC [4]: 0.2 µg/mL (≈ 0.476 µM)
MIC [5]: 0.39 µg/mL (≈ 0.928 µM)
MIC [6]: > 25 µg/mL
MIC [7]: > 25 µg/mL
MIC [8]: > 25 µg/mL
MIC [9]: 0.1 µg/mL (≈ 0.238 µM)
MIC [10]: 0.2 µg/mL (≈ 0.476 µM)

SMILES: CN(C)[C@@H]1C(O)=C(C(N)=O)C(=O)[C@@]2(O)C(O)=C3C(=O)c4c(O)cccc4[C@@](C)(O)[C@H]3C[C@@H]12 [Tetracycline, tetracycline]
MIC [1]: 3.13 µg/mL (≈ 7.04 µM)
MIC [2]: 1.56 µg/mL (≈ 3.51 µM)
MIC [3]: > 25 µg/mL

SMILES: CC1(C)S[C@@H]2[C@H](NC(=O)[C@H](N)c3ccc(O)cc3)C(=O)N2[C@H]1C(=O)O [Amoxicillin, amoxicillin]
Bacterial eradication number (H. pylori ATCC 43504; 20 mg/kg twice a day): 1
bacterial eradication % (H. pylori ATCC 43504; 20 mg/kg twice a day): 33%
Number of each bacterium in stomach (H. pylori ATCC 43504; 20 mg/kg twice a day): 1.60 log CFU/stomach and < 1.3 log CFU/stomach
bacterial eradication effect (H. pylori ATCC 43504): not observed
Bacterial eradication number (H. pylori ATCC 43504; 40 mg/kg twice a day): 2
bacterial eradication % (H. pylori ATCC 43504; 40 mg/kg twice a day): 67%
Number of each bacterium in stomach (H. pylori ATCC 43504; 40 mg/kg twice a day): <1.3, <1.3, log CFU/stomach (2×) and 1.78 log CFU/stomach
MIC [1]: 0.2 µg/mL (≈ 0.547 µM)
MIC [2]: 6.25 µg/mL (≈ 17.1 µM)
MIC [3]: > 25 µg/mL
MIC (Helicobacter pylori SS1): 0.39 µg/mL (≈ 1.07 µM)
MIC [4]: 0.025 µg/mL (≈ 0.0684 µM)
MIC [5]: 0.39 µg/mL (≈ 1.07 µM)
MIC [6]: 0.05 µg/mL (≈ 0.137 µM)
MIC [7]: 0.39 µg/mL (≈ 1.07 µM)
MIC [8]: 0.05 µg/mL (≈ 0.137 µM)
MIC [9]: 0.1 µg/mL (≈ 0.274 µM)
MIC [10]: 0.1 µg/mL (≈ 0.274 µM)

SMILES: CC[C@H]1OC(=O)[C@H](C)[C@@H](O[C@H]2C[C@@](C)(OC)[C@@H](O)[C@H](C)O2)[C@H](C)[C@@H](O[C@@H]2O[C@H](C)C[C@H](N(C)C)[C@H]2O)[C@](C)(OC)C[C@@H](C)C(=O)[C@H](C)[C@@H](O)[C@]1(C)O [Clarithromycin, clarithromycin]
Bacterial eradication number (H. pylori ATCC 43504; 20 mg/kg twice a day): 0 (0)
bacterial eradication % (H. pylori ATCC 43504; 20 mg/kg twice a day): 0 (0) %
Number of each bacterium in stomach (H. pylori ATCC 43504; 20 mg/kg twice a day): 2.79 log CFU/stomach and 2.89 log CFU/stomach and 3.37 log CFU/stomach
bacterial eradication effect (H. pylori ATCC 43504): not observed
Bacterial eradication number (H. pylori ATCC 43504; 40 mg/kg twice a day): 0 (0)
bacterial eradication % (H. pylori ATCC 43504; 40 mg/kg twice a day): 0 (0) %
Number of each bacterium in stomach (H. pylori ATCC 43504; 40 mg/kg twice a day): 1.6, 1.6, log CFU/stomach (2×) and 2.38 log CFU/stomach
MIC [1]: > 25 µg/mL
MIC [2]: 12.5 µg/mL (≈ 16.7 µM)
MIC [3]: > 25 µg/mL
MIC (Helicobacter pylori SS1): 0.025 µg/mL (≈ 0.0334 µM)
MIC [4]: 0.025 µg/mL (≈ 0.0334 µM)
MIC [5]: > 25 µg/mL
MIC [6]: 0.0125 µg/mL (≈ 0.0167 µM)
MIC [7]: > 25 µg/mL
MIC [8]: 0.05 µg/mL (≈ 0.0668 µM)
MIC [9]: < 0.025 µg/mL
MIC [10]: 0.1 µg/mL (≈ 0.134 µM)

SMILES: CN1C(=O)c2ccc3c4c(ccc(c24)C1=O)C(=O)N(C)C3=O [Compound 3]
MIC [2]: > 25 µg/mL
MIC [3]: > 25 µg/mL
MIC [4]: 6.25 µg/mL (≈ 21.2 µM)
MIC [8]: > 25 µg/mL
